Values of other authors in patent US20050119124A1, “Phosphorus and potassium fertilizer for all forms of perennial trees, vines and annual crops” (priority 1999, published 2005).

Conditions: 18C

## OP(O)O [Phosphorous acid, phosphorous acid]
  pK, first acid group: 2.00
  pK, second acid group: 6.59
